These results are taken from US10357477B2, “Anticancer compounds” (REGENTS OF THE UNIVERSITY OF MINNESOTA, priority 2016, dated 2019).

The subject of the assay is MIA PaCa-2 cells. Description: Cell viability assay (MTT) in MIA PaCa-2 cells. The format is cell-based. Conditions: Homo sapiens, antiproliferative activity, 72 h. As for the experimental part: MIA PaCa-2 cells (CRL-1420, ATCC) were maintained in DMEM media supplemented with 10% FBS, 2.5% HS, 1% GlutaMAX, 1% sodium pyruvate, 100 U/mL penicillin, and 100 μg/mL streptomycin. Cell culture media and additives were purchased from Gibco. Cells were plated in 96-well plates at |1−2.5|×10^4 cells per well in the DMEM growth media. One microliter of a 2-fold serially diluted compound solution in DMSO (Sigma) starting at 20 mM (100 μM final concentration) was added to each well. The final volume in each well was 200 μL, yielding a final DMSO concentration of 0.5%. Control wells contained 0.5% DMSO (100% viability) or 25% DMSO (background) and all reactions were done in triplicate. The plate was incubated for 72 h at 37° C. in a 5% CO2/95% air humidified atmosphere.
Measurement of cell viability was carried out using a modified method of Mosmann based on 3-(4,5-dimethylthiazol-2-yl)-2,5-diphenyltetrazolium bromide (MTT, Sigma). MTT solution was prepared fresh at 1 mg/mL in serum-free and phenol red-free RPMI 1640 media. After 200 μL of MTT solution was added to each well, the plate was incubated as described above for 3 h. The MTT solution was removed, and the formazan crystals were solubilized with 200 μL of isopropanol. The plate was read on a SpectraMax i3 spectrophotometer (Molecular Devices) at 570 nm for formazan and 650 nm for background subtraction. EC50 values were calculated by fitting the data in GraphPad Prism software. EC50 values were determined in triplicate.
What is called EC50 is the concentration that produces a half-maximal response. In turn, `Cc1nn(Cc2cccc(C(=O)Nc3ccccc3)c2)c(C)c1NC(=O)c1ccc(COc2ccccc2)cc1` [Compound A4d, 3-((3,5-Dimethyl-4-(4-(phenoxymethyl)benzamido)-1H-pyrazol-1-yl)methyl)-N-phenylbenzamide] gave a concentration for a half-maximal effect (EC50) of 6.4 µM.

The compound `CNC(=O)c1cccc(Cn2nc(C)c(N(C)C(=O)c3ccc(COc4ccccc4)cc3)c2C)c1` [Compound B1, N-(3,5-Dimethyl-1-(3-(methylcarbamoyl)benzyl)-1H-pyrazol-4-yl)-N-methyl-4-(phenoxymethyl)benzamide] displayed a concentration for a half-maximal effect (EC50) of 17 µM. Next, `CNC(=O)c1cccc(Cn2nc(C)c(NCc3ccc(COc4ccccc4)cc3)c2C)c1` [Compound B2, 3-((3,5-Dimethyl-4-((4-(phenoxymethyl)benzyl)amino)-1H-pyrazol-1-yl)methyl)-N-methylbenzamide]: 6.1 µM; `CNC(=O)c1cccc(Cn2nc(C)c(NS(=O)(=O)c3ccc(COc4ccccc4)cc3)c2C)c1` [Compound B3, 3-((3,5-Dimethyl-4-((4-(phenoxymethyl)phenyl)sulfonamido)-1H-pyrazol-1-yl)methyl)-N-methylbenzamide]: 25 µM. `CNC(=O)c1cccc(Cn2nc(C)c(NC(=O)c3ccc(CSc4ccccc4)cc3)c2C)c1` [Compound C1, 3-((3,5-Dimethyl-4-(4-((phenylthio)methyl)benzamido)-1H-pyrazol-1-yl)methyl)-N-methylbenzamide] registered an EC50 of 8.3 µM. The compound `CNC(=O)c1cccc(Cn2nc(C)c(NC(=O)c3ccc(CNc4ccccc4)cc3)c2C)c1` [Compound C2, 3-((3,5-Dimethyl-4-(4-((phenylamino)methyl)benzamido)-1H-pyrazol-1-yl)methyl)-N-methylbenzamide] yielded an EC50 of 17 µM.

`CNC(=O)c1cccc(Cn2nc(C)c(NC(=O)c3cccc(COc4ccccc4)c3)c2C)c1` [Compound C6, N-(3,5-Dimethyl-1-(3-(methylcarbamoyl)benzyl)-1H-pyrazol-4-yl)-3-(phenoxymethyl)benzamide] came in with an EC50 of 32 µM. The result for `CNC(=O)c1cccc(Cn2nc(C)c(NC(=O)c3ccc(COC4CCCCC4)cc3)c2C)c1` [Compound C7, 3-((4-(4-((Cyclohexyloxy)methyl)benzamido)-3,5-dimethyl-1H-pyrazol-1-yl)methyl)-N-methylbenzamide] reads 14 µM; that for `CNC(=O)c1cccc(Cn2nc(C)c(NC(=O)c3ccc(COc4ccc5ccccc5c4)cc3)c2C)c1` [Compound D1, 3-((3,5-Dimethyl-4-(4-((naphthalen-2-yloxy)methyl)benzamido)-1H-pyrazol-1-yl)methyl)-N-methylbenzamide], 9.1 µM. As to `CNC(=O)c1cccc(Cn2nc(C)c(NC(=O)c3ccc(COc4cccc(C#N)c4)cc3)c2C)c1` [Compound D7b, 3-((4-(4-((3-Cyanophenoxy)methyl)benzamido)-3,5-dimethyl-1H-pyrazol-1-yl)methyl)-N-methylbenzamide], a half-maximal effect (EC50) was put at 10 µM.

`CNC(=O)c1cccc(Cn2nc(C)c(NC(=O)c3ccc(COc4ccccc4[N+](=O)[O-])cc3)c2C)c1` [Compound D8a, 3-((3,5-Dimethyl-4-(4-((2-nitrophenoxy)methyl)benzamido)-1H-pyrazol-1-yl)methyl)-N-methylbenzamide] had an EC50 of 11 µM. The result for `CNC(=O)c1cccc(Cn2nc(C)c(NC(=O)c3ccc(COc4cccc([N+](=O)[O-])c4)cc3)c2C)c1` [Compound D8b, 3-((3,5-Dimethyl-4-(4-((3-nitrophenoxy)methyl)benzamido)-1H-pyrazol-1-yl)methyl)-N-methylbenzamide] reads 10 µM; that for `CNC(=O)c1cccc(Cn2nc(C)c(NC(=O)c3ccc(COc4ccc([N+](=O)[O-])cc4)cc3)c2C)c1` [Compound D8c, 3-((3,5-Dimethyl-4-(4-((4-nitrophenoxy)methyl)benzamido)-1H-pyrazol-1-yl)methyl)-N-methylbenzamide], 9.7 µM.

`CNC(=O)c1cccc(Cn2nc(C)c(NC(=O)c3ccc(COc4ccc(C(F)(F)F)cc4C)nc3)c2C)c1` [Compound E5a, N-(3,5-Dimethyl-1-(3-(methylcarbamoyl)benzyl)-1H-pyrazol-4-yl)-6-((2-methyl-4-(trifluoromethyl)phenoxy)methyl)nicotinamide] yielded an EC50 of 6.7 µM. As to `CNC(=O)c1cc(Cn2nc(C)c(NC(=O)c3ccc(COc4ccc(C(F)(F)F)cc4C)nc3)c2C)ccn1` [Compound E5b, 4-((3,5-Dimethyl-4-(6-((2-methyl-4-(trifluoromethyl)phenoxy)methyl)nicotinamido)-1H-pyrazol-1-yl)methyl)-N-methylpicolinamide], the EC50 was found to be 9.4 µM. `CNC(=O)c1cccc(Cn2nc(C)c(NC(=O)c3ccc(Oc4ccccc4)cc3)c2C)c1` [Compound E6a, 3-((3,5-Dimethyl-4-(4-phenoxybenzamido)-1H-pyrazol-1-yl)methyl)-N-methylbenzamide] showed an EC50 of 8.4 µM.

As to `CNC(=O)c1cccc(Cn2nc(C)c(NC(=O)c3ccc(Oc4ccc(C(F)(F)F)cc4)cc3)c2C)c1` [Compound E6b, 3-((3,5-Dimethyl-4-(4-(4-(trifluoromethyl)phenoxy)-benzamido)-1H-pyrazol-1-yl)methyl)-N-methylbenzamide], the EC50 was 4.6 µM. `CNC(=O)c1cccc(Cn2nc(C)c(NC(=O)c3ccc(Oc4ccc(C(F)(F)F)cc4C)cc3)c2C)c1` [Compound E6c, 3-((3,5-Dimethyl-4-(4-(2-methyl-4-(trifluoromethyl)phenoxy)benzamido)-1H-pyrazol-1-yl)methyl)-N-methylbenzamide] gave an EC50 of 1.2 µM. In turn, `CNC(=O)c1cc(Cn2nc(C)c(NC(=O)c3ccc(Oc4ccc(C(F)(F)F)cc4)cc3)c2C)ccn1` [Compound E7a, 4-((3,5-Dimethyl-4-(4-(4-(trifluoromethyl)phenoxy)-benzamido)-1H-pyrazol-1-yl)methyl)-N-methylpicolinamide] gave an EC50 of 8.1 µM. On to `CNC(=O)c1cc(Cn2nc(C)c(NC(=O)c3ccc(Oc4ccc(C(F)(F)F)cc4C)cc3)c2C)ccn1` [Compound E7b, 4-((3,5-Dimethyl-4-(4-(2-methyl-4-(trifluoromethyl)phenoxy)-benzamido)-1H-pyrazol-1-yl)methyl)-N-methylpicolinamide], for which the response was half-maximal at 10 µM (EC50). Next, `CNC(=O)c1cccc(Cn2nc(C)c(NC(=O)c3ccc(C(C)Oc4ccccc4)cc3)c2C)c1` (centres unmarked) [Compound F1, 3-((3,5-Dimethyl-4-(4-(1-phenoxyethyl)benzamido)-1H-pyrazol-1-yl)methyl)-N-methylbenzamide]: 22 µM; `CNC(=O)c1cccc(C(C)n2nc(C)c(NC(=O)c3ccc(COc4ccccc4)cc3)c2C)c1` (centres unmarked) [Compound F2, 3-(1-(3,5-Dimethyl-4-(4-(phenoxymethyl)benzamido)-1H-pyrazol-1-yl)ethyl)-N-methylbenzamide]: 7.7 µM.

Consider `CNC(=O)c1cccc(C(C)n2nc(C)c(NC(=O)c3ccc(COc4ccc(C(F)(F)F)cc4C)cc3)c2C)c1` (centres unmarked) [Compound F3, 3-(1-(3,5-Dimethyl-4-(4-((2-methyl-4-(trifluoromethyl)phenoxy)methyl)benzamido)-1H-pyrazol-1-yl)ethyl)-N-methylbenzamide], for which the midpoint of the response, the EC50, lay at 2.4 µM.
